Measurements from patent US20090048301A1 (IMCLONE SYSTEMS INCORPORATED, priority 2003, published 2009).

Tests used:
bovine tubulin = assay: In vitro tubulin polymerization assay (turbidity at 340 nm); format: biochemical; settings: 10 μM compound, 30 minute data point, vs 1% DMSO control
Outline: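 Bovine tubulin (97%, <3% MAPs) at 3 mg/ml final in G-PEM pH 7 with 1 mM GTP and 5% glycerol, added cold to compound wells at 37° C (1% DMSO final). A340 read each minute for 30 min; percent inhibition from 30-min point versus DMSO control.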

[1] = tested on: A431, human epidermoid carcinoma cells; assay: Cell cycle analysis (FACS), mitotic arrest in G2/M; format: cell-based; settings: Homo sapiens, A-431, 24 h, read-out: FACS Assay: concentration required to achieve inhibition in FACS assay
Outline: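 A431 cells, 500,000/well at treatment, exposed to compounds at 0.01–1 μM final (0.1% DMSO) for 24 h. Ethanol-fixed cells RNase-treated (1 μg/ml, 37° C., 15 min), stained with propidium iodide (50 μg/ml, 30 min, RT). DNA ploidy by flow cytometry; mitotic arrest scored as G2/M accumulation.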

[2] = tested on: A431 human cancer cell line; assay: Sulphorhodamine B (SRB) growth inhibition assay; format: cell-based; settings: A-431, A431 cells, 48 hours, read-out: SRB Assay: μM required to inhibit tumor cell growth by 50% (GI50)
Procedure: The in vitro growth inhibition activity of the compounds was determined by the Sulphorhodamine B assay. (Skehan P, Storeng R, Scudiero D, Monks A, McMahon J, Vistica D, Warren J T, Bokesch H, Kenney S, Boyd M R. New colorimetric cytotoxicity assay for anticancer-drug screening. J Natl Cancer Inst 82, 1107-1112, 1990). Sulphorhodamine B binds to basic amino acids and stains proteins which can be eluted and detected spectrophotometically by measuring absorbance at 515 nm. The absorbance was indicative of the total protein content of the cells fixed to the walls of the plate well at a given time by trichloroacetic acid, which is a measure of the viable cell concentration.
The in vitro growth inhibition activity of the compounds was determined using a Sulphorhodamine B assay. See, Skehan et al., “New colorimetric cytotoxicity assay for anticancer-drug screening,” J. Natl. Cancer Inst., 82, 1107-1112, (1990). Sulphorhodamine B binds to basic amino acids and stains proteins which can be eluted and detected spectrophotometically by measuring absorbance at 515 nm. The absorbance indicates the total protein content of the cells fixed to the walls of the plate well at a given time by trichloroacetic acid, which is a measure of the viable cell concentration.
The reagents used in the assay can be purchased from commercial sources and include Sulphorhodamine B 0.4% (w/v) in 1% (v/v) acetic acid (Sigma Cat#S-1402); trichloroacetic acid 50% (w/v) in deionized water, working solution (Sigma Cat#T-9159); and trizma base (Tris) 10 mM working solution, pH 7.5 (Sigma Cat#T-7693).
The procedure was cared out over four days. In Day 1, the cells were seeded in a seed 10,000 cells/100 μL/well in 96 well plate in duplicates as per template. Also, seed cells in extra plate for time zero (To plate). Thereafter, the cells were incubated for 24 hours at 37° C. with 5% CO2.
On Day 2, the test compound was added to the cells at five log doses from 100 μM to 0.01 μM (Volume of addition=100 μL in 1% DMSO for all compound concentrations, Control treatment=1% DMSO).
The compounds were prepared by weighing the test compounds in 1.5 ml eppendorf tubes and calculating the volume of DMSO to be added to bring the concentration of the compound to 20 mM. Thereafter, a 20 mM stock was made and diluted by four 10 fold dilutions in DMSO to get 2, 0.2, 0.02 and 0.002 mM solutions. Each solution was diluted 100 times (10 μL to 1 ml medium) and a further addition to the culture plate (100 μL) to half the concentration of cells was made. The final well concentration for 20 mM stock was 100 μM and similarly with other test concentrations.
The cells were incubated for 48 hours at 37° C. with 5% CO2 and terminated by adding 50 μL of 50% cold trichloroacetic acid (10% to final). Thereafter, the cells were incubated for one hour at 4° C.
On Day 4, the cells were fixed to the wells by the addition of 50 μL of 50% cold trichloroacetic acid (10% to final) and incubated for 1 hour at 4° C. The supernatant was discarded by force inverting the plate into the sink followed by washing thrice with tap water and the plates are then air-dried. 100 μL SRB (0.4% in 1% acetic acid) was added to each well and the plates were incubated for 10 minutes at room temperature. Unbound dye was removed by force inverting the plate into the sink and washing thrice with 1% acetic acid. Thereafter, the plates were allowed to air dry.
Bound SRB was solubilized with 100 μL of 10 mM Tris, pH 7.4 and the absorbance was measured at a wavelength of 515 nm.
A sample set of calculations was performed as follows. The percentage growth was calculated by T-To/C-To X 100 if T>To and T-To/To X 100 if T<To, wherein T is Test OD (with compound), C is Control OD, To is Time Zero OD (cell growth at the time of drug addition). […]

Structure (SMILES) | GI50 [2] | Tubulin Assay: percent inhibition at 10 μM based on 30 minute data (bovine tubulin) | minimal effective concentration [1]
COc1ccc(-c2nnc(-c3cccnc3NCc3ccc4c(c3)OCO4)[nH]2)cc1OC [Compound 78, Benzo[1,3]dioxol-5-ylmethyl-{3-[5-(3,4-dimethoxy-phenyl)-4H-[1,2,4]triazol-3-yl]-pyridin-2-yl}-amine] | 3 µM | 55% | 1 µM
COc1cc(Nc2ncccc2-c2nnc(Nc3ccc4c(c3)OCO4)[nH]2)cc(OC)c1 [Compound 30, {3-[5-(Benzo[1,3]dioxol-5-ylamino)-4H-[1,2,4]triazol-3-yl]-pyridin-2-yl}-(3,5-dimethoxy-phenyl)-amine] | 0.01 µM | 87% | 0.1 µM
c1cnc(NCc2ccc3c(c2)OCO3)c(-c2nnc(Nc3ccc4c(c3)OCO4)o2)c1 [Compound 181, {3-[5-(Benzo[1,3]dioxol-5-ylamino)-[1,3,4]oxadiazol-2-yl]-pyridin-2-yl}-benzo[1,3]dioxol-5-ylmethyl-amine] | 0.3 µM | 76% | 1 µM
COc1cc(Nc2ncccc2-c2nnc(Nc3ccc(N(C)C)cc3)[nH]2)cc(OC)c1 [Compound 6, (3,5-Dimethoxy-phenyl)-{3-[5-(4-dimethylamino-phenylamino)-4H-[1,2,4]triazol-3-yl]-pyridin-2-yl}-amine] | 20 µM | 35% | 10 µM
C#Cc1ccc(-c2nnc(-c3ccccc3NCc3ccncc3)[nH]2)cc1 [Compound 131, {2-[5-(4-Ethynyl-phenyl)-4H-[1,2,4]triazol-3-yl]-phenyl}-pyridin-4-ylmethyl-amine] | 0.06 µM | 46% | 0.1 µM
CS(=O)(=O)c1ccc(-c2nnc(-c3ccccc3NCc3ccncc3)[nH]2)cc1 [Compound 129] | 0.025 µM | 84% | 0.1 µM
COc1cc(Nc2ncccc2-c2nnc(Nc3ccc4c(c3)OCCO4)o2)cc(OC)c1 [Compound 193, {3-[5-(2,3-Dihydro-benzo[1,4]dioxin-6-ylamino)-[1,3,4]oxadiazol-2-yl]-pyridin-2-yl}-(3,5-dimethoxy-phenyl)-amine] | 0.01 µM | 69% | 0.01 µM
COc1ccc(Nc2nnc(-c3cccnc3NCc3ccc4c(c3)OCO4)[nH]2)c(OC)c1 [Compound 17, Benzo[1,3]dioxol-5-ylmethyl-{3-[5-(2,4-dimethoxy-phenylamino)-4H-[1,2,4]triazol-3-yl]-pyridin-2-yl}-amine] | 4 µM | 80% | 10 µM
COc1cccc(Nc2nnc(-c3cccnc3Nc3ccc4cn[nH]c4c3)[nH]2)c1 [Compound 18, (1H-Indazol-6-yl)-{3-[5-(3-methoxy-phenylamino)-4H-[1,2,4]triazol-3-yl]-pyridin-2-yl}-amine] | 1.5 µM | 70% | 1 µM
COc1ccc(Nc2nnc(-c3cccnc3NCc3ccc4c(c3)OCO4)o2)cc1OC [Compound 180, Benzo[1,3]dioxol-5-ylmethyl-{3-[5-(3,4-dimethoxy-phenylamino)-[1,3,4]oxadiazol-2-yl]-pyridin-2-yl}-amine] | 1.5 µM | 32% | 
Fc1cccc(-c2nnc(-c3cccnc3NCc3ccc4c(c3)OCO4)[nH]2)c1 [Compound 82, Benzo[1,3]dioxol-5-ylmethyl-{3-[5-(3-fluoro-phenyl)-4H-[1,2,4]triazol-3-yl]-pyridin-2-yl}-amine] | 20 µM | 30% | 
COc1ccc(OC)c(Nc2nnc(-c3cccnc3Nc3ccc4c(c3)OCO4)[nH]2)c1 [Compound 9, Benzo[1,3]dioxol-5-yl-{3-[5-(2,5-dimethoxy-phenylamino)-4H-[1,2,4]triazol-3-yl]-pyridin-2-yl}-amine] | 25 µM | 47% | 
COc1cccc(Nc2nnc(-c3cccnc3NCc3ccc4c(c3)OCO4)o2)c1 [Compound 186, Benzo[1,3]dioxol-5-ylmethyl-{3-[5-(3-methoxy-phenylamino)-[1,3,4]oxadiazol-2-yl]-pyridin-2-yl}-amine] | 100 µM | 42% | 
c1ccc(-c2nnc(Nc3ccc4c(c3)OCO4)[nH]2)c(NCc2ccncc2)c1 [Compound 111, Benzo[1,3]dioxol-5-yl-(5-{2-[(pyridin-4-ylmethyl)-amino]-phenyl}-4H-[1,2,4]triazol-3-yl)-amine] | 10 µM | 70% | 

The next lines start with results.

GI50 [2] | Structure (SMILES) | Tubulin Assay: percent inhibition at 10 μM based on 30 minute data (bovine tubulin) | minimal effective concentration [1]
6 µM | COc1cc(CNc2ncccc2-c2nnc(Nc3ccc(OC)c(OC)c3)o2)cc(OC)c1 [Compound 183, (3,5-Dimethoxy-benzyl)-{3-[5-(3,4-dimethoxy-phenylamino)-[1,3,4]oxadiazol-2-yl]-pyridin-2-yl}-amine] | 50% | 0.1 µM
2.5 µM | COc1ccc(Nc2nnc(-c3cccnc3Nc3cc(OC)cc(OC)c3)[nH]2)cc1 [Compound 3, (3,5-Dimethoxy-phenyl)-{3-[5-(4-methoxy-phenylamino)-4H-[1,2,4]triazol-3-yl]-pyridin-2-yl}-amine] | 72% | 10 µM
1.2 µM | COc1ccc(-c2nnc(-c3cccnc3NCc3cccnc3)[nH]2)cc1OC [Compound 88, {3-[5-(3,4-Dimethoxy-phenyl)-4H-[1,2,4]triazol-3-yl]-pyridin-2-yl}-pyridin-3-ylmethyl-amine] | 29% | 10 µM
0.7 µM | COc1cccc(Nc2nnc(-c3cccnc3Nc3cc(OC)cc(OC)c3)[nH]2)c1 [Compound 2, (3,5-Dimethoxy-phenyl)-{3-[5-(3-methoxy-phenylamino)-4H-[1,2,4]triazol-3-yl]-pyridin-2-yl}-amine] | 80% | 0.1 µM
20 µM | COc1cc(CNc2ncccc2-c2nnc(-c3cccc(OC)c3)[nH]2)cc(OC)c1 [Compound 79, (3,5-Dimethoxy-benzyl)-{3-[5-(3-methoxy-phenyl)-4H-[1,2,4]triazol-3-yl]-pyridin-2-yl}-amine] | 32% | 
100 µM | COc1cc(OC)cc(-c2nnc(-c3ccccc3NCc3ccncc3)[nH]2)c1 [Compound 132, {2-[5-(3,5-Dimethoxy-phenyl)-4H-[1,2,4]triazol-3-yl]-phenyl}-pyridin-4-ylmethyl-amine] | 46% | 
